Entries after “also recorded” stand apart in the source; their conditions may differ.
System: LM2-4luc lymphatic metastases in SCID mice
Assay: experimental LM2-4luc lymphatic metastasis model (IV)
Format: in vivo, human LM2-4luc cells in CB-17 SCID mice
Settings: n = 12; for progression of lymphatic metastases (bioluminescence): VT 250 ng/2d, SU pretreatment, Kruskal–Wallis, Fig2F–H
Description: (C and G) Photographs of typical metastases in the lungs and caudal lymphatics, respectively. […] Geometric means ± 95%CI are depicted in (D and H); P values were derived by one-way ANOVA (D) and Kruskal–Wallis test (H). […] TEXT PRINTED IN THE PICTURE: (A) Vasculotide (VT): Hazard ratio = 0.13 (95% CI, 0.03 to 0.63) | (A) SU+VT: Hazard ratio = 0.19 (95% CI, 0.04 to 0.81) DOUBTS OF THE COPYIST ABOUT THIS PICTURE: Vasculotide (VT), Hazard ratio: small print; 0.13 could be 0.15 or 0.18, and the CI limits 0.03 and 0.63 are uncertain in the digits 3/5/6/8 / SU+VT, Hazard ratio: small print; 0.19 could be 0.18 or 0.16, and the CI limits 0.04 and 0.81 are uncertain in the digits / Panel A: each hazard ratio is printed under a pair of legend entries (Vehicle / Vasculotide (VT), and Sunitinib (SU) / SU+VT). Assigning it to the VT-treated arm of each pair is my assumption.
In vivo experiments were performed in strict accordance with protocols approved by the Sunnybrook Research Institute Animal Care Committee, accredited by the Canadian Council of Animal Care. All surgical, imaging, and euthanasia procedures were performed under inhaled isoflurane anesthesia. Experimental metastasis models involved injections of 10^6 tumor cells, suspended in 200 μl serum-free DMEM, into the mouse tail vein. LM2-4^luc implantations were performed on 6 to 8-week-old female CB-17 SCID mice (Charles River Canada). […]
For in vivo BI: Mice were injected intraperitoneally with 150mg/kg luciferin (Promega) 10 minutes prior to and anesthetized with isofluorane just before luminescent pseudocolor imaging (uniform settings: CCD camera locked at -105 °C, exposure=60s, f/1, subject size=1.5cm, bin=8, FOV=23.2cm, full image correction) using the IVIS 200 Imaging System (Caliper/PerkinElmer). Using the Living Image software (v2.50.1, Xenogen), weekly images were analyzed under uniform color range on grayscale photographic overlay. Total fluxes (photons/sec) were quantified within consistent regions of interest and statistically compared ideally at a timepoint before any deaths have occurred. […]

`CCN(CC)CCNC(=O)c1c(C)[nH]c(/C=C2\C(=O)Nc3ccc(F)cc32)c1C` [sunitinib, reference compound] was tested, and the “progression of lymphatic metastases (bioluminescence)” value (listed as SU) was “did not similarly promote lymphatic metastases; also recorded: did not accelerate their progression”.
With “CHHHRHSF [Vasculotide, 4-armed maleimide-functionalized polyethylene glycol (PEG) backbone to link together four cysteine-capped T7 peptides, that is, CHHHRHSF]” the “progression of lymphatic metastases (bioluminescence)” value was “no significant effect on survival rates (Fig2E) or the progression of lymphatic metastases” and the survival rates (VT, Fig2E, listed as VT) was “no significant effect on survival rates”.

Reference: article PMC4459817, “Vasculotide reduces endothelial permeability and tumor cell extravasation in the absence of binding to or agonistic activation of Tie2” (EMBO Molecular Medicine, 2015)
